Assay results as given in PubChem BioAssay (NCI).
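Briefly, cells in 96-well plates were exposed to five compound concentrations for 48 h, and endpoints were estimated by linear interpolation. At the GI50, growth is halved. Definition used: TGI = concentration required for complete inhibition of growth.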

Legend:
Assay in all cases: DTP human tumour cell line panel, 48 h
[1] = system: DU-145 prostate
[2] = system: OVCAR-3 ovarian
[3] = system: HS 578T breast
[4] = system: KM12 colon
[5] = system: HCT-116 colon
[6] = system: RPMI-8226 leukemia
[7] = system: HOP-92 NSCLC
[8] = system: UO-31 renal
[9] = system: PC-3 prostate
[10] = system: COLO 205 colon
[11] = system: IGROV1 ovarian
[12] = system: SW-620 colon
[13] = system: OVCAR-5 ovarian
[14] = system: HT29 colon
[15] = system: SK-OV-3 ovarian
[16] = system: SK-MEL-2 melanoma
[17] = system: SNB-19 CNS
[18] = system: NCI-H23 lung
[19] = system: MCF7 breast
[20] = system: NCI-H522 lung
[21] = system: U251 CNS
[22] = system: CAKI-1 renal
[23] = system: BT-549 breast
[24] = system: UACC-62 melanoma
[25] = system: SK-MEL-5 melanoma
[26] = system: SNB-75 CNS
[27] = system: A549 NSCLC
[28] = system: SK-MEL-28 melanoma
[29] = system: LOX IMVI melanoma
[30] = system: CCRF-CEM leukemia
[31] = system: TK-10 renal
[32] = system: ACHN renal
[33] = system: SF-268 CNS
[34] = system: OVCAR-4 ovarian
[35] = system: SF-539 CNS
[36] = system: OVCAR-8 ovarian
[37] = system: K-562 leukemia
[38] = system: 786-0 renal
[39] = system: HOP-62 NSCLC
[40] = system: NCI-H226 lung
[41] = system: SN12C renal
[42] = system: T-47D breast
[43] = system: NCI/ADR-RES ovarian
[44] = system: HCC-2998 colon
[45] = system: MOLT-4 leukemia
[46] = system: RXF 393 renal
[47] = system: HCT-15 colon
[48] = system: NCI-H460 lung
[49] = system: HL-60(TB) leukemia
[50] = system: MDA-MB-435
[51] = system: SF-295 CNS
[52] = system: EKVX NSCLC
[53] = system: UACC-257 melanoma
[54] = system: MDA-MB-231 breast

Clc1ccc(OCc2nn3c(CCCCc4nnc5sc(COc6ccc(Cl)cc6Cl)nn45)nnc3s2)c(Cl)c1
GI50 [1]: 71.9 µM
TGI [1]: > 100 µM
GI50 [2]: 30.4 µM
TGI [2]: 74.4 µM
GI50 [3]: 36.7 µM
TGI [3]: > 100 µM
GI50 [4]: 31.9 µM
TGI [4]: > 100 µM
GI50 [5]: 18.1 µM
TGI [5]: 63.1 µM
GI50 [6]: 25.4 µM
TGI [6]: 59.6 µM
GI50 [7]: 50.3 µM
TGI [7]: > 100 µM
GI50 [8]: > 100 µM
TGI [8]: > 100 µM
GI50 [9]: 47.8 µM
TGI [9]: > 100 µM
GI50 [10]: 52 µM
TGI [10]: > 100 µM
GI50 [11]: 83 µM
TGI [11]: > 100 µM
GI50 [12]: > 100 µM
TGI [12]: > 100 µM
GI50 [13]: > 100 µM
TGI [13]: > 100 µM
GI50 [14]: > 100 µM
TGI [14]: > 100 µM
GI50 [15]: > 100 µM
TGI [15]: > 100 µM
GI50 [16]: > 100 µM
TGI [16]: > 100 µM
GI50 [17]: 76.8 µM
TGI [17]: > 100 µM
GI50 [18]: 37.3 µM
TGI [18]: > 100 µM
GI50 [19]: 48.1 µM
TGI [19]: > 100 µM
GI50 [20]: 45.2 µM
TGI [20]: > 100 µM
GI50 [21]: 29 µM
TGI [21]: 89.7 µM
GI50 [22]: 40.1 µM
TGI [22]: > 100 µM
GI50 [23]: 54.2 µM
TGI [23]: > 100 µM
GI50 [24]: 69.4 µM
TGI [24]: > 100 µM
GI50 [25]: 42 µM
TGI [25]: > 100 µM
GI50 [26]: 33.3 µM
TGI [26]: > 100 µM
GI50 [27]: 82.6 µM
TGI [27]: > 100 µM
GI50 [28]: > 100 µM
TGI [28]: > 100 µM
GI50 [29]: 67.1 µM
TGI [29]: > 100 µM
GI50 [30]: 51 µM
TGI [30]: > 100 µM
GI50 [31]: 32.6 µM
TGI [31]: 92 µM
GI50 [32]: 93.6 µM
TGI [32]: > 100 µM
GI50 [33]: 73.1 µM
TGI [33]: > 100 µM
GI50 [34]: 50.3 µM
TGI [34]: > 100 µM
GI50 [35]: 55.8 µM
TGI [35]: > 100 µM
GI50 [36]: 46.2 µM
TGI [36]: > 100 µM
GI50 [37]: 22.7 µM
TGI [37]: 61 µM
GI50 [38]: 65.4 µM
TGI [38]: > 100 µM
GI50 [39]: 60.1 µM
TGI [39]: > 100 µM
GI50 [40]: 38 µM
TGI [40]: > 100 µM
GI50 [41]: 94.3 µM
TGI [41]: > 100 µM
GI50 [42]: 43.9 µM
TGI [42]: > 100 µM
GI50 [43]: 35.8 µM
TGI [43]: > 100 µM
GI50 [44]: 35.3 µM
TGI [44]: > 100 µM
GI50 [45]: 18.4 µM
TGI [45]: 48.5 µM
GI50 [46]: 83.9 µM
TGI [46]: > 100 µM
GI50 [47]: > 100 µM
TGI [47]: > 100 µM
GI50 [48]: 71.9 µM
TGI [48]: > 100 µM
GI50 [49]: > 100 µM
TGI [49]: > 100 µM
GI50 [50]: 49.6 µM
TGI [50]: > 100 µM
GI50 [51]: 40.6 µM
TGI [51]: > 100 µM
GI50 [52]: 57.5 µM
TGI [52]: > 100 µM
GI50 [53]: 72.7 µM
TGI [53]: > 100 µM
GI50 [54]: 44.3 µM
TGI [54]: > 100 µM
